Counter-ions that a name gives are not always drawn.
Key:
[1] = Serum ECyd level after peroral administration; assay type: in vivo; conditions: perorally administered to Donryu male rats; compared with ECyd
Method: Separately, the compound of the present invention was perorally administered to Donryu male rats, and serum ECyd level was measured.

[2] = test system: Yoshida Sarcoma cell line (rat ascites tumor); assay: Antitumor effect when perorally administered, Donryu rat subcutaneous tumor implantation system; assay type: in vivo, Donryu rats; conditions: perorally once a day for seven days at 12 μmol/kg/day; tumor weight seven days after grouping vs non-treatment group; ECyd equimolar
Method: Pharmacological Test Example 1 Antitumor Effect of the Compound of the Present Invention When Perorally Administered to Donryu Rat Subcutaneous Tumor Implantation System
Cells of a Yoshida Sarcoma cell line (rat ascites tumor) intraperitoneally subcultured in Donryu rats (Charles River Laboratories Japan, Inc.) were implanted subcutaneously to 5-week-old Donryu rats in the back thereof at 2×10^4 cells/0.2 mL. Four days after implantation, the body weight of each rat was measured, and the rats were grouped so that the average body weight was nearly equal between the groups (7 rats per group).
Each of the ECyd derivatives was dissolved or suspended in 0.5% hydroxypropylmethylcellulose solution, and the resultant solution or suspension was perorally administered to each rat every day from the day of grouping once a day for seven days at a dose of 12 μmol/kg/day. The ECyd derivative was evaluated three times. As a control in each test, ECyd was used in an equimolar amount as the ECyd derivative.
Seven days after the day of grouping, the tumor weight of the rat in the pharmaceutical agent administration group was measured. The tumor weight of the rat to which no pharmaceutical agent had been administered (non-treatment group) was also measured. The average tumor weight of each of the pharmaceutical agent administration group and the non-treatment group was calculated. Tumor growth inhibition rate (IR) was determined through use of the following equation, whereby antitumor effect was evaluated. IR(%)=[1−(TWtest)/(TWcont)]×100 (Equation 1) [wherein TWtest and TWcont represent the average tumor weight of the pharmaceutical agent administration group and the non-treatment group, respectively].

[3] = test system: human tumor cells; conditions: intravenous 0.25 mg/kg for ten continuous days; gastric, colon, pancreatic, esophageal, bile duct, lung, breast, renal cancer strains; cited from earlier work

SMILES | melting point | serum ECyd level (concentration in blood) [1] | Tumor growth inhibition rate IR (%) [2] [%] | anti-tumor effect [3]
C#C[C@@]1(O)[C@@H](CO[Si](C)(C)C(C)(C)C)O[C@@H](n2ccc(NC(=O)OC(C)(C)C)nc2=O)[C@@H]1O | 103 to 110 °C | – | – | –
C#C[C@@]1(O)[C@@H](CO[Si](CC)(CC)CC)O[C@@H](n2ccc(N)nc2=O)[C@@H]1O | 202 to 204 °C | – | – | –
C#C[C@@]1(O)[C@@H](CO[Si](C)(C)c2ccccc2)O[C@@H](n2ccc(N)nc2=O)[C@@H]1O | 171 to 173 °C | – | – | –
C#C[C@@]1(O)[C@@H](CO[Si](C)(C)C(C)(C)C(C)C)O[C@@H](n2ccc(N)nc2=O)[C@@H]1O | > 197 °C (dec.) | – | – | –
C#C[C@@]1(O)[C@@H](CO)O[C@@H](n2ccc(N)nc2=O)[C@@H]1O[Si](C)(C)C(C)(C)C(C)C (as salt: trifluoroacetic acid salt) [Compound 13, 1-(2-O-Dimethylthexylsilyl-3-C-ethynyl-1-β-D-ribofuranosyl)cytosine trifluoroacetic acid salt] | 182 °C | – | – | –
C#C[C@@]1(O)[C@@H](CO[Si](c2ccccc2)(c2ccccc2)C(C)(C)C)O[C@@H](n2ccc(N)nc2=O)[C@@H]1O (hydrate or solvate) | 210 to 213 °C | – | – | –
C#C[C@@]1(O)[C@@H](CO[Si](C)(C)C(C)(C)C)O[C@@H](n2ccc(N)nc2=O)[C@@H]1O [Compound 1, 1-[5-O-(tert-Butyldimethylsilyl)-3-C-ethynyl-β-D-ribofuranosyl]cytosine] | 251 to 256 °C (dec.) | particularly high concentration in blood | 94.6 | –
C#C[C@@]1(O)[C@@H](CO[Si](C(C)C)(C(C)C)C(C)C)O[C@@H](n2ccc(N)nc2=O)[C@@H]1O [Compound 3, 1-[5-O-Triisopropylsilyl-3-C-ethynyl-β-D-ribofuranosyl]cytosine] | > 219 °C (dec.) | particularly high concentration in blood | 93.4 | –
C#C[C@@]1(O)[C@@H](CO[Si](C)(C)CCCCCCCC)O[C@@H](n2ccc(N)nc2=O)[C@@H]1O [Compound 4, 1-[5-O-(Dimethyl-n-octylsilyl)-3-C-ethynyl-β-D-ribofuranosyl]cytosine] | 175 to 177 °C (dec.) | particularly high concentration in blood | – | –
C#C[C@@]1(O)[C@@H](CO)O[C@@H](n2ccc(N)nc2=O)[C@@H]1O[Si](C)(C)C(C)(C)C [Compound 9, 1-[2-O-(tert-Butyldimethylsilyl)-3-C-ethynyl-1-β-D-ribofuranosyl]cytosine] | – | particularly high concentration in blood | 99.6 | –
C#C[C@@]1(O)[C@@H](CO)O[C@@H](n2ccc(N)nc2=O)[C@@H]1O[Si](C(C)C)(C(C)C)C(C)C [Compound 11, 1-(2-O-Triisopropylsilyl-3-C-ethynyl-1-β-D-ribofuranosyl)cytosine] | – | particularly high concentration in blood | 88.3 | –
C#C[C@@]1(O)[C@@H](CO[Si](C)(C)C(C)(C)C(C)C)O[C@@H](n2ccc(N)nc2=O)[C@@H]1O[Si](C)(C)C(C)(C)C(C)C [Compound 12, 1-(2,5-bis-O-Dimethylthexylsilyl-3-C-ethynyl-1-β-D-ribofuranosyl)cytosine] | 106 to 108 °C | particularly high concentration in blood | 91.5 | –
C#C[C@@]1(O)[C@@H](CO)O[C@@H](n2ccc(N)nc2=O)[C@@H]1O[Si](C)(C)C(C)(C)C(C)C [Compound 14, 1-(2-O-Dimethylthexylsilyl-3-C-ethynyl-1-β-D-ribofuranosyl)cytosine] | 218 °C | particularly high concentration in blood | 99.8 | –
C#C[C@@]1(O)[C@@H](CO[Si](C)(C)C(C)(C)C)O[C@@H](n2ccc(NC(=O)CCCCCC)nc2=O)[C@@H]1O [Compound 15, 1-[5-O-(tert-Butyldimethylsilyl)-3-C-ethynyl-β-D-ribofuranosyl]-4-N-heptanoylcytosine] | 134 to 137 °C | particularly high concentration in blood | – | –
C#C[C@@]1(O)[C@@H](CO[Si](C)(C)C(C)(C)C)O[C@@H](n2ccc(NC(=O)CN(C)C)nc2=O)[C@@H]1O [Compound 17, 1-[5-O-(tert-Butyldimethylsilyl)-3-C-ethynyl-β-D-ribofuranosyl]-4-N-(N,N-dimethylglycyl)cytosine] | 180 to 185 °C | particularly high concentration in blood | – | –
C#C[C@@]1(O)[C@@H](CO[Si](C(C)C)(C(C)C)C(C)C)O[C@@H](n2ccc(NC(=O)CN(C)C)nc2=O)[C@@H]1O [Compound 18, 1-[5-O-(Triisopropylsilyl)-3-C-ethynyl-β-ribofuranosyl]-4-N-(N,N-dimethylglycyl)cytosine] | 146 to 148 °C | particularly high concentration in blood | – | –
C#C[C@@]1(O)[C@@H](CO)O[C@@H](n2ccc(N)nc2=O)[C@@H]1O [ECyd, 3′-ethynylcytidine] | – | – | 46.6 | excellent anti-tumor effect more greatly than any of fluoropyrimidine-based drugs

Source: US8058261B2, “3′-ethynylcytidine derivative” (Taiho Pharmaceutical Co., Ltd., priority 2006, dated 2011)
